Literature values, collected in publication PMC9851200, “Multiparameter phenotypic screening for endogenous TFEB and TFE3 translocation identifies novel chemical series modulating lysosome function” (Autophagy, 2022).

Legend:
Set-up in all cases: method as in original PKIS2 published data
[1] = molecular target: kinases (KINOMEscan panel) (Homo sapiens, UniProt Q96J92); details: WNK4; Published KINOMEscan; ref original PKIS2 published data; cited from earlier work
[2] = molecular target: kinases (KINOMEscan panel) (Homo sapiens, UniProt P49841); details: Published KINOMEscan; ref original PKIS2 published data; cited from earlier work
Sequence of kinases (KINOMEscan panel) (Homo sapiens, UniProt P49841) (P49841 whole entry): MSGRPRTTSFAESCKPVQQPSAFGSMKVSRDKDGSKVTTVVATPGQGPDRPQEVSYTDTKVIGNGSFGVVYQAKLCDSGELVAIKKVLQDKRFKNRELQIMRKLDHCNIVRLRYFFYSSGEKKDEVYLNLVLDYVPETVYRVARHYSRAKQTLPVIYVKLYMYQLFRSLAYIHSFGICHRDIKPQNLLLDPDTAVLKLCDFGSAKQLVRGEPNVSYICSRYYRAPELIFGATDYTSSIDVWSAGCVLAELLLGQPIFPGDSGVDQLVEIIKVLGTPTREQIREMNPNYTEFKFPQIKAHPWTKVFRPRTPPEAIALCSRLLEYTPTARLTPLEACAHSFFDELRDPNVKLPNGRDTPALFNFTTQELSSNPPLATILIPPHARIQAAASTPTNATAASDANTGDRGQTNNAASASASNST

[3] = molecular target: kinases (KINOMEscan panel) (Homo sapiens, UniProt Q9Y6R4); details: MAP3K4; Published KINOMEscan; ref original PKIS2 published data; cited from earlier work
Sequence of kinases (KINOMEscan panel) (Homo sapiens, UniProt Q9Y6R4) (Q9Y6R4 whole entry): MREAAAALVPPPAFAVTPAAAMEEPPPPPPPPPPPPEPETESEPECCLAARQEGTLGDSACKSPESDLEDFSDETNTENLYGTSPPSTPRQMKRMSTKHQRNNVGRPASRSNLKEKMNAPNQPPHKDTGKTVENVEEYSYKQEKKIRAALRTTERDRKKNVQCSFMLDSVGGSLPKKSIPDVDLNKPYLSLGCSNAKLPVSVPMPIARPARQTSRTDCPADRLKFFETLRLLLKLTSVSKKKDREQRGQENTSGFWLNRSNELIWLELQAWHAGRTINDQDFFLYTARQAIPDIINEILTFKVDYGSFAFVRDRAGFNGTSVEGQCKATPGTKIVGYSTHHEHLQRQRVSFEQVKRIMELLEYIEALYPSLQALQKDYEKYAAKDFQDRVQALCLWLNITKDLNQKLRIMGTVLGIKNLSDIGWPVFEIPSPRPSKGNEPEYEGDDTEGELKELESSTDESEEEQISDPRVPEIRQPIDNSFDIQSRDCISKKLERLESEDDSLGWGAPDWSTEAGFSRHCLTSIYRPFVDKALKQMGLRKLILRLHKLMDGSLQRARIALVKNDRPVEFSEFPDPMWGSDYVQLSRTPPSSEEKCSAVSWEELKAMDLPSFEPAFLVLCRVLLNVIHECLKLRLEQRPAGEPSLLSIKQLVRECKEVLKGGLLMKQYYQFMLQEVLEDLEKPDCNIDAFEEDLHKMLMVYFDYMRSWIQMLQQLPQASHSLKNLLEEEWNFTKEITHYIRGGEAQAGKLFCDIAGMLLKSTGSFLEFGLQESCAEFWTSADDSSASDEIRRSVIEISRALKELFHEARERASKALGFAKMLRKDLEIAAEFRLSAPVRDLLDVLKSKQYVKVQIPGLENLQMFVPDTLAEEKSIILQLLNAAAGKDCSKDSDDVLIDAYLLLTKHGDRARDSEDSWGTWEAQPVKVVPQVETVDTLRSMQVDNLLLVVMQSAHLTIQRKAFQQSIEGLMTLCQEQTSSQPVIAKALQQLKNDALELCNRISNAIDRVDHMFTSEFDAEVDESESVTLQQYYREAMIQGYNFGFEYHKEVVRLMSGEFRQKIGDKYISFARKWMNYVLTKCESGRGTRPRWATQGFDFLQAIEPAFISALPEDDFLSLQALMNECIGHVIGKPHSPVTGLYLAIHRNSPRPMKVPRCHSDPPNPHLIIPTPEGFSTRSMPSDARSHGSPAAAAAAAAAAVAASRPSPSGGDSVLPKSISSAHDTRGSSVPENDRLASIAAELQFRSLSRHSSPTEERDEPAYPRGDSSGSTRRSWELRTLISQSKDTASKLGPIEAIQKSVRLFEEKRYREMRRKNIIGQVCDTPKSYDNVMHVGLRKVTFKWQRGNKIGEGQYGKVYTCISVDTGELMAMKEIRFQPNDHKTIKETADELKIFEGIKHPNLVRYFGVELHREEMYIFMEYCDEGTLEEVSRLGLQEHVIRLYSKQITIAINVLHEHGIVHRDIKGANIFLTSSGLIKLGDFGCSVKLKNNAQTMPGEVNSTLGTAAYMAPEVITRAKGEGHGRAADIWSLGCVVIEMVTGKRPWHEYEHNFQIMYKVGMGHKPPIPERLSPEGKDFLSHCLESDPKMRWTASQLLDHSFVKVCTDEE

[4] = molecular target: kinases (KINOMEscan panel) (Homo sapiens, UniProt Q9UQM7); details: kinase CAMK2A; Published KINOMEscan; ref original PKIS2 published data; cited from earlier work
Sequence of kinases (KINOMEscan panel) (Homo sapiens, UniProt Q9UQM7) (Q9UQM7 whole entry): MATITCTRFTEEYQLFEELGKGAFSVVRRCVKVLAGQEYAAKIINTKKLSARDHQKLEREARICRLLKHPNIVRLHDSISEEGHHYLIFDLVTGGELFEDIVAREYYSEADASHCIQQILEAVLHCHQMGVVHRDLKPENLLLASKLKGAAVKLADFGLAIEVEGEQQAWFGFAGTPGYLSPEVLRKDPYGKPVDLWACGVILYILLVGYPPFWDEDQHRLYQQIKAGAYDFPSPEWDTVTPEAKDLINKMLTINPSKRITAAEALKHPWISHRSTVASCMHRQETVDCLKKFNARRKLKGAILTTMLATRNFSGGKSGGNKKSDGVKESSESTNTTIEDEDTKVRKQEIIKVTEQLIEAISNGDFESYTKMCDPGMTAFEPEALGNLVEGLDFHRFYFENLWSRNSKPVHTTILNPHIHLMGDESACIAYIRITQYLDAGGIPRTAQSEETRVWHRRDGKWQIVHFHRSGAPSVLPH

[5] = molecular target: T1, kinases (KINOMEscan panel) (Homo sapiens, UniProt O14936); details: kinase CASK; Published KINOMEscan; ref original PKIS2 published data; cited from earlier work
T1 sequence (O14936 1-926): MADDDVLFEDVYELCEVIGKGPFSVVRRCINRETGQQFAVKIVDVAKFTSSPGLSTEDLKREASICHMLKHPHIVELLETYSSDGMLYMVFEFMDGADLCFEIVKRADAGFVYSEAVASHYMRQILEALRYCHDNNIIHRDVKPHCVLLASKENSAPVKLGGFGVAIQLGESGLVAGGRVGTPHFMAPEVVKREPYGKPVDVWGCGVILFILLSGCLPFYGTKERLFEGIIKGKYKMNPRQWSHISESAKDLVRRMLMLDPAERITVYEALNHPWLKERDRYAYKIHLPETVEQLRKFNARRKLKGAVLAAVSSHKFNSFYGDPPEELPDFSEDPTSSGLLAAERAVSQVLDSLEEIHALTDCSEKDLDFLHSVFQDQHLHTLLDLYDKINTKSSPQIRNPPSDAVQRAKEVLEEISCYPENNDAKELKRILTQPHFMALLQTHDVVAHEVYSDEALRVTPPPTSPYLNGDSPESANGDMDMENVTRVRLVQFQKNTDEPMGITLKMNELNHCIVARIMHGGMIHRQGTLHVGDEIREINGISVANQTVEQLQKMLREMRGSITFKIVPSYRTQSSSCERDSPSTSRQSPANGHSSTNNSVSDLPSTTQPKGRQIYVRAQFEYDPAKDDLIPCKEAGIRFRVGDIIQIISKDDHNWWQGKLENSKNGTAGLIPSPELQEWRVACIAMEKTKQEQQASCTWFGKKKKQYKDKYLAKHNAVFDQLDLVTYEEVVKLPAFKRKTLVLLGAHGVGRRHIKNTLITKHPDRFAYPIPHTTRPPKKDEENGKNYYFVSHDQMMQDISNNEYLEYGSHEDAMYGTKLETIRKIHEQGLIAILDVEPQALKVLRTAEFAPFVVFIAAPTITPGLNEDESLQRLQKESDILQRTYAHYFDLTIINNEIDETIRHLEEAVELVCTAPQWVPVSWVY

[6] = molecular target: T2, kinases (KINOMEscan panel) (Homo sapiens, UniProt Q15835); details: Published KINOMEscan; ref original PKIS2 published data; cited from earlier work
T2 sequence (Q15835 1-563): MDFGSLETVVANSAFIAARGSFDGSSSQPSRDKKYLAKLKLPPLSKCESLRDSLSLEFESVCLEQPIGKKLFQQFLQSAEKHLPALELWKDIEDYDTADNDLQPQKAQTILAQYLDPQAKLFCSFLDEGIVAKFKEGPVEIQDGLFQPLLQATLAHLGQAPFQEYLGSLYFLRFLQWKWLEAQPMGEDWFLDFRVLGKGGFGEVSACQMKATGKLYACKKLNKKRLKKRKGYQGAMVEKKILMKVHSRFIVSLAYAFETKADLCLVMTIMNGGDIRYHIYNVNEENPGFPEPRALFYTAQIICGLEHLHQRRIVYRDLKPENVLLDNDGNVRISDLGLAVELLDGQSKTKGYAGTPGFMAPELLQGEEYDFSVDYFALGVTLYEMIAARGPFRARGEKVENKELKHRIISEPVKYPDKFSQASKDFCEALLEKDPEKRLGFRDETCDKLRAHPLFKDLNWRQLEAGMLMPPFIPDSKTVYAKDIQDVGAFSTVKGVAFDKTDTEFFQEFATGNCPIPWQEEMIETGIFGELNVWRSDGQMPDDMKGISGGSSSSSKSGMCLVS

[7] = molecular target: kinases (KINOMEscan panel) (Homo sapiens, UniProt Q8IVW4); details: kinase CDKL3; Published KINOMEscan; ref original PKIS2 published data; cited from earlier work
Sequence of kinases (KINOMEscan panel) (Homo sapiens, UniProt Q8IVW4) (Q8IVW4 whole entry): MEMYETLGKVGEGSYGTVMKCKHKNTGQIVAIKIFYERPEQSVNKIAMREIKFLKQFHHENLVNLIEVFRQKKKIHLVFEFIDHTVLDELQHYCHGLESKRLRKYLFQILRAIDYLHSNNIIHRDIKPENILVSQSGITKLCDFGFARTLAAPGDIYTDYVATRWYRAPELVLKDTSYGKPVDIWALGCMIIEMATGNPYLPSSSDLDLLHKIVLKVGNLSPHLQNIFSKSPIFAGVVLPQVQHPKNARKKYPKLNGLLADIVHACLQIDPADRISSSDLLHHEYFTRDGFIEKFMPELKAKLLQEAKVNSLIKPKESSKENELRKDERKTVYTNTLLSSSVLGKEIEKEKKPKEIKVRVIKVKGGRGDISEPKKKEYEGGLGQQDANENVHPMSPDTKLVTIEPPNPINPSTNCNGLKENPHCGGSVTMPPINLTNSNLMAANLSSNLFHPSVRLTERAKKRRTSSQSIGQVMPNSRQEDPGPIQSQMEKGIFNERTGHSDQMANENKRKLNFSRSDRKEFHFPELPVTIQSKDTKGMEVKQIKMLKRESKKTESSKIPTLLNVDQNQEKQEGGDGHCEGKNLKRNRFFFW

[8] = molecular target: T3, kinases (KINOMEscan panel) (Homo sapiens, UniProt Q8N568); details: Published KINOMEscan; ref original PKIS2 published data; cited from earlier work
T3 sequence (Q8N568 1-766): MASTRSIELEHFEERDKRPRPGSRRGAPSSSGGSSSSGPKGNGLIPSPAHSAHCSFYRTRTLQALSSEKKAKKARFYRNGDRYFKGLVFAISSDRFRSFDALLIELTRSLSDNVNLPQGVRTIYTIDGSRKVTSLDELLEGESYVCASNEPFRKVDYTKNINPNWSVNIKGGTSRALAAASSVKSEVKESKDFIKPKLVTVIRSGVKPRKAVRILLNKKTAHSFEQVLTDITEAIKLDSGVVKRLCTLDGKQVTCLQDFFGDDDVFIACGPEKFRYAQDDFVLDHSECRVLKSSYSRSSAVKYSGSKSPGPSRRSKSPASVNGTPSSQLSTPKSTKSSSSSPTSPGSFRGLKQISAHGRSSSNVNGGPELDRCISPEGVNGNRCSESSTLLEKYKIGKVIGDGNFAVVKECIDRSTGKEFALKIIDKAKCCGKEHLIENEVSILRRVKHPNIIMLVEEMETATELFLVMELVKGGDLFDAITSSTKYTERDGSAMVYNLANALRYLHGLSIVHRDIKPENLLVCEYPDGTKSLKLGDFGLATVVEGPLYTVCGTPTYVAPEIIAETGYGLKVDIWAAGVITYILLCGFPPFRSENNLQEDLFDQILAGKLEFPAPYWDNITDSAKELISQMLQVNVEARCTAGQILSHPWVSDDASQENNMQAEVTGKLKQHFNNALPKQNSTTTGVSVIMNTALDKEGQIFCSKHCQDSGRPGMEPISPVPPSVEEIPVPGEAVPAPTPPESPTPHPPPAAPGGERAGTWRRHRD

Sequence of kinases (KINOMEscan panel) (Homo sapiens, UniProt Q96J92) (Q96J92 whole entry): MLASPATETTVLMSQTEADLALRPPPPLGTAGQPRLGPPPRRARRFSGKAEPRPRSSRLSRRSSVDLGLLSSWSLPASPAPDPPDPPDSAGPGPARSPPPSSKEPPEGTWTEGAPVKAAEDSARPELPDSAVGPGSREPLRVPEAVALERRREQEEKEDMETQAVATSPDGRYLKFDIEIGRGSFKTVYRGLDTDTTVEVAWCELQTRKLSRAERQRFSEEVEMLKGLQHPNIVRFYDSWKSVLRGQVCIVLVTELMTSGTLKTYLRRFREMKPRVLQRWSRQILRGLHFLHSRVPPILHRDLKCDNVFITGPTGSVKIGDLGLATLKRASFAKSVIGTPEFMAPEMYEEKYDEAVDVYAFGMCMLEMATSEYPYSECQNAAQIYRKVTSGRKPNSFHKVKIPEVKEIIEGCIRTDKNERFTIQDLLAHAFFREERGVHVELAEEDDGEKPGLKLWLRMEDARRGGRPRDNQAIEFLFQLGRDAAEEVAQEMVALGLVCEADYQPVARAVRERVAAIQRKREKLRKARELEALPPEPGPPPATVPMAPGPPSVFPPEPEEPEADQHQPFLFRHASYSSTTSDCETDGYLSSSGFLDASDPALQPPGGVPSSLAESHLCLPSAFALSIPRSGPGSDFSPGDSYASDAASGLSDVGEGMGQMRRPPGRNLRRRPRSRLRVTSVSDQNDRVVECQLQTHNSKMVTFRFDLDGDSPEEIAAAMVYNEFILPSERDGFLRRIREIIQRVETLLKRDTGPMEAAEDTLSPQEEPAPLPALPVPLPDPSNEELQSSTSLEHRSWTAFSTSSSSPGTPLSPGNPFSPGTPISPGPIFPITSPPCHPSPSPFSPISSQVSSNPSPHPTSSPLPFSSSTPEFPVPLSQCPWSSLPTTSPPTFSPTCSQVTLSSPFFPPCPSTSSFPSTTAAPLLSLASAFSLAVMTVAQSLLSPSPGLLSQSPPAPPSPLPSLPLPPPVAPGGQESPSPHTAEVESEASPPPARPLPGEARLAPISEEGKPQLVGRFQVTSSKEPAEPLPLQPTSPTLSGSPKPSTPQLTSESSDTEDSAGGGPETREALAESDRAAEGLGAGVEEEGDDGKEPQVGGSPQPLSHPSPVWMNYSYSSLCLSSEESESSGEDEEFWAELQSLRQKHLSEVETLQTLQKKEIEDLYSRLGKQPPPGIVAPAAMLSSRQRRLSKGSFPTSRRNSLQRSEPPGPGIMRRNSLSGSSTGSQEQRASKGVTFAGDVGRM

Cc1cccc(-c2nc(Nc3ccncc3)c3ccccc3n2)n1 [NK215]
KINOMEscan WNK4 [1]: 0 | KINOMEscan GSK3B [2]: 0 | KINOMEscan MAP3K4 [3]: 16 | KINOMEscan CAMK2A [4]: 6 | KINOMEscan CASK [5]: 0 | KINOMEscan GRK1 [6]: 0 | KINOMEscan CDKL3 [7]: 0 | KINOMEscan DCLK2 [8]: 0
